Like-named read-outs stand apart in the source and are kept apart here.
How the values were obtained:
[1] = system: PQ-treated Neuro-2a cells; assay: PQ-induced neurotoxicity, cell viability (MTT); type: cell-based, murine; conditions: PQ 1 mM; for Effect on percentage of living cells after treatment with PQ: compounds 0.01–10 μM, 1 h pre-treatment, MTT after 24 h
Description: (§1) After 24 h of adhesion, Neuro-2a cells (1 × 10^4 cells/well) were treated with polyphenolic compounds at concentrations of 0.01–10 μM for 1 h. Subsequently, 1 mM of PQ, 10 μM rotenone or 80 μM of 6-OHDA (Sigma-Aldrich, St. Louis, MO, USA) were added. We used MTT assay to determine the percentage of living cells (cell viability) after 24 h of incubation. Cells incubated without inductors or with inductors were used as positive and negative control, respectively. The results are presented as percentages of the positive control value.

[2] = system: 6-OHDA-treated Neuro-2a cells; assay: 6-OHDA-induced neurotoxicity, cell viability (MTT); type: cell-based, murine; conditions: 6-OHDA 80 µM, p < 0.05
Description: as §1

[3] = system: retina pigmented epithelium cells RPE-1; set-up: method as in PMID 32087226; conditions: RPE-1 normal cell line; cited from earlier work
[4] = system: human embryonic kidney cells HEK-293; set-up: method as in PMID 32087226; conditions: HEK-293 normal cell line; cited from earlier work
[5] = system: hepatocellular carcinoma HEPG-2; set-up: method as in PMID 32087226; conditions: cited from earlier work
[6] = system: esophageal squamous cell carcinoma Kyse-30; set-up: method as in PMID 32087226; conditions: cited from earlier work
[7] = system: human triple-negative breast cancer HTB-19; set-up: method as in PMID 32087226; conditions: cited from earlier work
[8] = system: 6-OHDA-treated Neuro-2a cells; assay: ROS level in 6-OHDA-treated cells (H2DCF-DA); type: cell-based, murine; conditions: 6-OHDA 80 µM, 1 h; H2DCF-DA
Description: (§2) After 24 h of adhesion, Neuro-2a cells (1 × 10^4 cells/well) were incubated with compounds (0.01–10 µM) for 1 h. Then, we added rotenone (10 μM), 6-OHDA (80 μM), or PQ (1 mM) to each well and incubated cells for 1 h, 1 h, or 3 h, respectively. To evaluate the level of intracellular ROS, we added 20 µL of 2,7-dichlorodihydrofluorescein diacetate solution ([…], H2DCF-DA, Molecular Probes, Eugene, OR, USA) to each well, so that the final concentration was 10 µM, and incubated the microplate at 37 °C for an additional 30 min. Quercetin was used as a reference compound.

Cytotoxicity, MTT assay = type: cell-based, murine; conditions: mouse, Neuro-2a neuroblastoma cells, read-out: Cytotoxic activity EC50
Description: The murine neuroblastoma cell line Neuro-2a (CCL-131) was purchased from American Type Culture Collection (ATCC®) (Manassas, VA, USA). Cells were cultured in Dulbecco’s Modified Eagle Medium (Biolot, St. Petersburg, Russia). The medium contained 10% fetal bovine serum (Biolot, St. Petersburg, Russia) and 1% penicillin/streptomycin (Biolot, St. Petersburg, Russia). Cells were incubated at 37 °C in a humidified atmosphere containing 5% (v/v) CO2.
Stock solutions of polyphenolic compounds were prepared in DMSO at a concentration of 10 mM. […]
We incubated Neuro-2a cells (1 × 10^4 cells/well) at 37 °C in a CO2 incubator for 24 h until they formed an adherent monolayer. Then, 20 μL of the tested solution was loaded onto the cells and incubated for 24 h. After incubation, the medium containing the polyphenolic test compounds was replaced by 100 μL of fresh medium. Then, we added 10 μL of MTT (3-(4,5-dimethylthiazol-2-yl)-2,5-diphenyltetrazolium bromide) (Sigma-Aldrich, St. Louis, MO, USA) stock solution (5 mg/mL) to each well and incubated the microplate for 4 h. Then, 100 μL of SDS-HCl solution (1 g SDS/10 mL dH2O/17 μL 6 M HCl) was added to each well, followed by incubation for 18 h. We measured the absorbance of the converted dye formazan on a Multiskan FC microplate photometer (Thermo Scientific, Waltham, MA, USA) at a wavelength of 570 nm. We performed all experiments in triplicate and expressed the cytotoxic activity as percent of living cells.

[9] = set-up: method as in PMID 31004693; conditions: mean ± SEM, n = 3; previously published; cited from earlier work
[10] = set-up: method as in PMID 31004693; conditions: 30 min; mean ± SEM, n = 3; previously published; read-out: DPPH-Scavenging Effect SC50; cited from earlier work
[11] = system: PQ-treated Neuro-2a cells; assay: ROS level in PQ-treated cells (H2DCF-DA); type: cell-based, murine; conditions: PQ 1 mM, 3 h
Description: as §2

[12] = DPPH radical-scavenging effect; conditions: 30 min; DPPH• 10^−4 M in MeOH; mean ± SEM, n = 3; read-out: DPPH-Scavenging Effect SC50
Description: The 2,2-diphenyl-1-picrylhydrazyl (DPPH^•) radical-scavenging effect of polyphenolic compounds 7–11 was determined as described in [24]. Polyphenolic compounds 7, 8, 9, 10, and 11 were added to DPPH^• solution in MeOH (10^−4 M) at concentrations from 6 to 34 µM. The reacting mixture was kept in the dark for 30 min at room temperature. Then, we measured the absorbance at 517 nm using a Shimadzu UV 1240 spectrophotometer (Shimadzu, Kyoto, Japan). Equation (1) was used to calculate the DPPH^• radical-scavenging effect (%):(1) DPPH^• scavenging effect,%=A0−Ax/A0 where A0 is the absorbance of DPPH^• solution of a blank sample (without polyphenolic compounds); AX is the absorbance of DPPH^• solution in the presence of different concentrations of polyphenolic compounds.
Quercetin was used as a reference compound. All experiments were performed in triplicate. We calculated the half-maximal scavenging concentration (SC50) for polyphenolic compounds by plotting the DPPH^• scavenging effect (%) against the concentrations of polyphenolic compounds. SC50 values are given as the mean value ± SEM.

[13] = system: rotenone-treated Neuro-2a cells; assay: ROS level in rotenone-treated cells (H2DCF-DA); type: cell-based, murine; conditions: rotenone 10 µM, 1 h
Description: as §2

[14] = system: rotenone-treated Neuro-2a cells; assay: Rotenone-induced neurotoxicity, cell viability (MTT); type: cell-based, murine; conditions: for Increase in percentage of living cells after treatment with rotenone compared to rotenone-treated cells: rotenone 10 µM, MTT, p < 0.05
Description: as §1

[15] = Ferric reducing antioxidant power (FRAP) assay; conditions: 4 min, absorbance 595 nm; mean ± SEM, n = 3
Description: We performed the FRAP assay as described in [29]. We prepared the FRAP reagent by mixing 2.5 mL of TPTZ (2,4,6-tris(2-pyridyl)-s-triazine) solution (10 mM) in 40 mM HCl and 25 mL of FeCl3 solution (20 mM) in acetate buffer solution (300 mM, pH 3.6). Polyphenolics 7–11 were added to 3 mL of FRAP reagent at concentrations from 6 to 34 µM. The mixture was kept in the dark at room temperature for 4 min. Then, we measured the absorbance at 595 nm using a Shimadzu UV 1240 spectrophotometer. Equation (2) was used to calculate the FRAP values for polyphenolic compounds 7–11:(2) FRAP=CFe/Cx where CFe is the concentration of Fe^2+ (µM) formed in the reaction; CX is the concentration of polyphenolic compounds in the reacting mixture.
The concentration of Fe^2+ (µM) formed in the reaction was determined using the calibration curve obtained for different concentrations of FeSO4·7H2O.

[16] = system: cerebral global-ischemia model; conditions: cited from earlier work
[17] = system: LPS- and Aβ-induced neurotoxicity; set-up: method as in PMID 21708076; conditions: cited from earlier work
TNF-α, IL-1, and IL-6 = system: TNF-α, IL-1, and IL-6; set-up: method as in PMID 21708076; conditions: cited from earlier work
rats = system: rats; set-up: method as in PMID 31693927, doi:10.1016/j.jff.2017.05.002; conditions: cited from earlier work
5-lipoxygenase = system: 5-lipoxygenase; set-up: method as in PMID 28506902; conditions: cited from earlier work
6-OHDA-exposed worms = system: 6-OHDA-exposed worms; set-up: method as in PMID 32585871; conditions: cited from earlier work
MAO-B = system: MAO-B; set-up: method as in PMID 27575476, PMID 32087226; conditions: cited from earlier work
RAW 264.7 macrophages = system: RAW 264.7 macrophages; set-up: method as in PMID 25592708; conditions: cited from earlier work
MAO-A = system: MAO-A; set-up: method as in PMID 27575476, PMID 32087226; conditions: cited from earlier work
α-synuclein = system: α-synuclein; set-up: method as in PMID 32585871; conditions: cited from earlier work

In the case of CC(C)=CCC/C(C)=C/Cc1c(O)c(O)cc2c3c(oc12)-c1ccc(O)cc1OC3 [Compound 4, lespedezol A2], the “Effect on percentage of living cells after treatment with PQ” value [1] is listed as “did not exhibit any effect”, the “Increase in percentage of living cells after 6-OHDA treatment versus 6-OHDA-treated cells” value [2] is listed as 7.0% and the Cytotoxicity [3] is listed as “rather cytotoxic”. For the same compound, the Cytotoxicity [4] was “rather cytotoxic”, the Cytotoxicity [5] was “rather cytotoxic” and the Cytotoxicity [6] was “rather cytotoxic”. For the same compound, the Cytotoxicity [7] was “rather cytotoxic”, the “Effect on ROS levels in 6-OHDA-treated cells” value [8] was “significantly decreased” and the EC50 at 24 h (Cytotoxicity, MTT assay) was 76 µM. The FRAP [9] was 2.78 ± 0.18 mol (Fe^2+)/mol (polyphenolic compound X) and the EC50 [10] was 18 ± 0.2 µM.

With CC(C)=CCC/C(C)=C/Cc1c(O)c(O)cc2c1O[C@H]1c3cc(CC=C(C)C)c(O)cc3OC[C@@H]21 [Compound 6, (6aR,11aR)-2-isoprenyl-6a,11a-dihydrolespedezol A2] the “Effect on percentage of living cells after treatment with PQ” value [1] was “significantly increased”, the “Concentration range in which the neuroprotective effect was detected” value ([1]; MTT) was 0.01 to 1 µM and the “Increase in percentage of living cells after treatment with PQ” value ([1]; compound 1 μM, MTT) was 17%. For the same compound, the “Effect on ROS level in PQ-treated cells” value [11] was “slightly decreased”, the EC50 at 24 h (Cytotoxicity, MTT assay) was 40.6 µM and the FRAP [9] was 1.43 ± 0.06 mol (Fe^2+)/mol (polyphenolic compound X). The EC50 [10] was 21.8 ± 2 µM.

With CC(C)=CCC[C@@]1(C)C=Cc2c(c(O)cc3c4c(oc23)-c2ccc(O)cc2OC4)O1 [Compound 9, lespedezol A3] the “Increase in percentage of living cells after 6-OHDA treatment versus 6-OHDA-treated cells” value [2] was 31.4%, the EC50 [12] was 13.5 ± 1.2 µM and the “Effect on ROS levels in rotenone-treated cells” value [13] was “did not significantly decrease”. The “Increase in percentage of living cells after treatment with rotenone compared to rotenone-treated cells” value [14] was 10.4%, the “Effect on ROS levels in 6-OHDA-treated cells” value [8] was “significantly decreased” and the EC50 at 24 h (Cytotoxicity, MTT assay) was 75 µM.

In the case of CC(C)=CCC[C@@]1(C)C=Cc2c(c(O)cc3c2oc2c4ccc(O)cc4oc(=O)c32)O1 [Compound 10, lespebicoumestan A], the “Increase in percentage of living cells after 6-OHDA treatment versus 6-OHDA-treated cells” value [2] is reported as 10.9%, the FRAP [15] is reported as 1.75 ± 0.20 mol (Fe^2+)/mol (polyphenolic compound X) and the EC50 [12] is reported as 22.7 ± 3.5 µM. The “Effect on ROS levels in rotenone-treated cells” value [13] was “did not significantly decrease”, the “Increase in percentage of living cells after treatment with rotenone compared to rotenone-treated cells” value [14] was 13.2% and the “Effect on ROS levels in 6-OHDA-treated cells” value [8] was “significantly decreased”. For the same compound, the EC50 at 24 h (Cytotoxicity, MTT assay) was 44 µM.

For O=c1oc2cc(O)ccc2c2oc3cc(O)ccc3c12 [Coumestrol], the “Neuroprotection in a cerebral global-ischemia model” value [16] is given as “effective neuroprotection”, the “Neurotoxicity induced by LPS and amyloid-beta peptide (Aβ)” value [17] is given as “attenuated” and the “Production of inflammatory cytokines TNF-α, IL-1, and IL-6” value (TNF-α, IL-1, and IL-6) is given as “inhibited”. The Mitochondrial activity (rats) was “modulated” and the Oxidative stress (rats) was “decreased”.

In the case of Oc1ccc2c(c1)OC[C@H]1c3cc4c(cc3O[C@@H]21)OCO4 [maackiain], the “Inhibition of 5-lipoxygenase” value (5-lipoxygenase) is listed as “inhibited”, the Dopaminergic neuron damage (6-OHDA-exposed worms) is listed as “significantly reduce” and the “Inhibition of MAO-B” value (MAO-B) is listed as “selectively inhibited”. For the same compound, the “LPS-induced nitric oxide production” value (RAW 264.7 macrophages) was “inhibitory effects”, the “Inhibition of MAO-A” value (MAO-A) was “did not effectively inhibit” and the “Accumulation of α-synuclein” value (α-synuclein) was “diminish”.

For C=C(C)[C@H]1Cc2c(ccc3c2O[C@@H]2COc4cc(OC)c(OC)cc4[C@@H]2C3=O)O1 [rotenone, reference compound], the “Percentage of living Neuro-2a cells compared to the control” value ([14]; rotenone 10 µM alone) was 68%.
